Experimental data as given in patent publication US20040186072A1, “Use of esters of long-chain fatty acids for treatment of autoimmune diseases” (priority 2001, published 2004).

Legend:
[1] = system: EAE induced by PLP 139-151 peptide in SJL/J mice; assay: EAE induced by PLP 139-151/CFA in SJL/J mice, clinical score 0-5; type: in vivo; conditions: for mean clinical score on day 22: Example 5: 100 μl s.c. daily from day 11, PBS control 2.5±0.84
[2] = system: EAE induced with mouse spinal cord homogenate (MSCH); assay: EAE induced by mouse spinal cord homogenate (MSCH)/CFA in SJL/J mice; type: in vivo; conditions: for clinical severity: 100 μl s.c. daily from day 4, all control mice had died by day 15, FIG. 6
[3] = stated as known; cited from earlier work
[4] = Example 2: 100 μl i.p. daily day 0-50, followed until day 70

## CCCCCCCC/C=C\CCCCCCCC(=O)OCC [EOA, ethyl oleate]
[1]; Example 1: EOA 100 μl s.c. daily day 0-11, then days 13, 15, 17, 20, 23, 26, untreated control 5 out of 5
  mice that developed EAE (incidence): 2 out of the 5
[1]; Example 1: EOA 100 μl s.c. from day 0, control 1.67±0.29
  mean maximal severity (clinical score 0-5): 0.5±0.32
[1]; Example 1: s.c. from day 0, FIG. 1
  effect on clinical severity and incidence of EAE: significantly reduced clinical severity and incidence of EAE
[1]; [4]
  mean maximal clinical score (0-5): 0.63±0.28
  mice that developed EAE (incidence): 5 out of 8
[1]; Example 2: i.p. daily day 0-50, treatment stopped day 50
  time mice remained stable after cessation of treatment: 20 days
[1]; Example 4: 100 μl i.p. daily from day 12 (clinical onset) to day 35, control 3.5±0.69
  maximal mean score at which disease progression was arrested: 0.83±0.53
[1]; Example 4: daily i.p. treatment reinstated from day 40 for 40 days, FIG. 4C, untreated control 3.1±0.7
  mean maximal clinical score, partially recovered subgroups (EOA-P, IFA-P): 1.3±0.19
[1]; Example 4: i.p. daily day 12-35, FIG. 4A
  therapeutic effect on ongoing EAE: immediately arrested the worsening of the clinical symptoms of EAE
[1]; Example 4: i.p. daily day 12-35, then no treatment
  state on day 40 after withholding treatment: remained stable with no evidence of disease exacerbation or development of relapses
[1]; Example 4: i.p. daily from day 12
  time to complete reversal of clinical symptoms after treatment was initiated: 8 to 10 days
[1]; Example 4: i.p. daily from day 12, control 3.5±0.69
  mean maximal clinical score on days 20-21: 0.17±0.11
[1]; Example 4: partially recovered subgroups, daily i.p. from day 40
  effect of second course of treatment on clinical signs: no further ameliorating effect
[1]
  mean clinical score on day 22: 0.83±0.40
[2]
  clinical severity: markedly reduced clinical severity
[3]
  toxicity when injected into humans: non-toxic when injected into humans

## mannide mono-oleate [MMO]
[1]; Example 3: 100 μl i.p. daily from day 0, FIG. 3
  effect on disease development: completely abrogated disease development
[1]; Example 3: i.p. daily day 0-25, 15 days after injections stopped, control 2.6±0.99
  mean maximal clinical score on day 40: 0.17±0.11
[1]; Example 3: i.p. daily day 0-25, 48 days after injections stopped, control 3.2±0.75
  mean maximal clinical score on day 73: 0.67±0.44
[1]; Example 3: i.p. daily day 0-25, from day 25 on
  mice in which very mild clinical signs appeared after treatment was discontinued: 3 out of the 6
[1]; Example 3: i.p. daily from day 0, all 6 treated mice, control score 3.4±0.69
  clinical signs on day 20: free of any clinical sign of EAE
[1]
  mean clinical score on day 22: 0.08±0.08
[2]; 100 μl s.c. daily from day 4, FIG. 6
  disease development: almost complete abrogation of disease development
[2]
  clinical severity: markedly reduced clinical severity
[3]
  toxicity when injected into humans: non-toxic when injected into humans
